Source: patent US20230278972A1, “SUBSTITUTED HALOALKYL SULFONANILIDE HERBICIDES” (FMC Corporation, priority 2020, published 2023)

Experiments:
Assay type in all cases: in vivo
[1] = system: barnyardgrass (Echinochloa crus-galli); experiment: Test A preemergence, barnyardgrass; details: Preemergence; for Plant response rating, Barnyardgrass: 0 to 100 scale (0 no effect, 100 complete control); for Barnyardgrass plant response rating: 125 g ai/ha, visual injury on 0 to 100 scale (0 no effect, 100 complete control), approximately 10 days
How it was run: (§1)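 Pots: loam soil/sand blend. Pre: directed soil spray at planting. Post: plants 2–10 cm, 1–2 leaf stage. Formulation: non-phytotoxic solvent + surfactant.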

kochia (Bassia scoparia) [2] = experiment: Test A preemergence, kochia; details: Preemergence; for Plant response rating, Kochia: 0 to 100 scale (0 no effect, 100 complete control); for Kochia plant response rating: 125 g ai/ha, visual injury on 0 to 100 scale (0 no effect, 100 complete control), approximately 10 days
How it was run: as §1

[3] = system: ragweed (common ragweed, Ambrosia artemisiifolia); experiment: Test A preemergence, ragweed; details: Preemergence; for Plant response rating, Ragweed: 0 to 100 scale (0 no effect, 100 complete control); for Ragweed plant response rating: 125 g ai/ha, visual injury on 0 to 100 scale (0 no effect, 100 complete control), approximately 10 days
How it was run: as §1

[4] = system: Ryegrass, Italian (Italian ryegrass, Lolium multiflorum); experiment: Test A preemergence, Ryegrass, Italian; details: Preemergence; for Plant response rating, Ryegrass, Italian: 0 to 100 scale (0 no effect, 100 complete control); for Ryegrass, Italian plant response rating: 125 g ai/ha, visual injury on 0 to 100 scale (0 no effect, 100 complete control), approximately 10 days
How it was run: as §1

[5] = system: Foxtail, Giant (giant foxtail, Setaria faberi); experiment: Test A preemergence, Foxtail, Giant; details: Preemergence; for Plant response rating, Foxtail, Giant: 0 to 100 scale (0 no effect, 100 complete control); for Foxtail, Giant plant response rating: 125 g ai/ha, visual injury on 0 to 100 scale (0 no effect, 100 complete control), approximately 10 days
How it was run: as §1

[6] = system: pigweed (Amaranthus retroflexus); experiment: Test A preemergence, pigweed; details: for Plant response rating, Pigweed: 0 to 100 scale (0 no effect, 100 complete control); for Pigweed plant response rating: 125 g ai/ha, visual injury on 0 to 100 scale (0 no effect, 100 complete control), approximately 10 days
How it was run: (§2)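 Greenhouse pot test in a loam–sand blend; compounds delivered in a non-phytotoxic solvent carrying a surfactant, applied either as a directed spray to soil at seeding or over seedlings 2 to 10 cm high with one to two leaves.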

[7] = system: barnyardgrass (Echinochloa crus-galli); experiment: Test A postemergence, barnyardgrass; details: Postemergence, 0 to 100 scale (0 no effect, 100 complete control); for Barnyardgrass plant response rating: 500 g ai/ha, visual injury vs untreated controls after approx. 10 days
How it was run: as §2

kochia (Bassia scoparia) [8] = experiment: Test A postemergence, kochia; details: Postemergence; for Kochia plant response rating: 500 g ai/ha, visual injury vs untreated controls after approx. 10 days
How it was run: as §1

[9] = system: ragweed (common ragweed, Ambrosia artemisiifolia); experiment: Test A postemergence, ragweed; details: Postemergence; for Ragweed plant response rating: 500 g ai/ha, visual injury vs untreated controls after approx. 10 days
How it was run: as §1

[10] = system: Ryegrass, Italian (Italian ryegrass, Lolium multiflorum); experiment: Test A postemergence, Ryegrass, Italian; details: Postemergence; for Ryegrass, Italian plant response rating: 500 g ai/ha, visual injury vs untreated controls after approx. 10 days
How it was run: as §1

[11] = system: Foxtail, Giant (giant foxtail, Setaria faberi); experiment: Test A postemergence, Foxtail, Giant; details: Postemergence; for Foxtail, Giant plant response rating: 500 g ai/ha, visual injury vs untreated controls after approx. 10 days
How it was run: as §1

[12] = system: pigweed (Amaranthus retroflexus); experiment: Test A postemergence, pigweed; details: Postemergence; for Pigweed plant response rating: 500 g ai/ha, visual injury vs untreated controls after approx. 10 days
How it was run: as §1

[13] = system: wheat (Triticum aestivum); experiment: Test A postemergence, wheat; details: Postemergence; for Wheat plant response rating: 500 g ai/ha, visual injury vs untreated controls after approx. 10 days
How it was run: as §2

corn (Zea mays) = experiment: Test A postemergence, corn; details: Postemergence; for Corn plant response rating: 500 g ai/ha, visual injury vs untreated controls after approx. 10 days
How it was run: as §1

[14] = system: blackgrass (Alopecurus myosuroides); experiment: Test A postemergence, blackgrass; details: Postemergence, 0 to 100 scale (0 no effect, 100 complete control); for Blackgrass plant response rating: 500 g ai/ha, visual injury vs untreated controls after approx. 10 days
How it was run: as §1

[15] = system: galium (catchweed bedstraw, Galium aparine); experiment: Test A postemergence, galium; details: Postemergence; for Galium plant response rating: 500 g ai/ha, visual injury vs untreated controls after approx. 10 days
How it was run: as §2

[16] = 0 to 100 scale (0 no effect, 100 complete control)
[17] = 125 g ai/ha, 0 to 100 scale (0 no effect, 100 complete control)
[18] = 31 g ai/ha, visual injury, approx. 10 days
[19] = 125 g ai/ha, visual injury approx. 10 days
[20] = 31 g ai/ha, visual injury on 0 to 100 scale (0 no effect, 100 complete control), approx. 10 days
[21] = 125 g ai/ha, visual injury approx. 10 days, 0 to 100 scale (0 no effect, 100 complete control)
[22] = 31 g ai/ha, 0 to 100 scale (0 no effect, 100 complete control)

## Cc1cc(C)c(-n2nccc(C)c2=O)cc1NS(=O)(=O)C(F)(F)F [Compound 84]
[1]; 500 g ai/ha
  Plant response rating, Barnyardgrass: 80
Kochia (Bassia scoparia) [2]; 500 g ai/ha
  Plant response rating, Kochia: 70
[3]; 500 g ai/ha
  Plant response rating, Ragweed: 0
[4]; 500 g ai/ha
  Plant response rating, Ryegrass, Italian: 90
[5]; 500 g ai/ha
  Plant response rating, Foxtail, Giant: 90
[6]; 500 g ai/ha
  Plant response rating, Pigweed: 70
[7]
  Barnyardgrass plant response rating: 80
Kochia (Bassia scoparia) [8]; [16]
  Kochia plant response rating: 0
[9]; [16]
  Ragweed plant response rating: 40
[10]; [16]
  Ryegrass, Italian plant response rating: 50
[11]; [16]
  Foxtail, Giant plant response rating: 50
[12]; [16]
  Pigweed plant response rating: 30
[13]; [16]
  Wheat plant response rating: 70
Corn (Zea mays); [16]
  Corn plant response rating: 60
[14]
  Blackgrass plant response rating: 20
[15]; [16]
  Galium plant response rating: 50

## Cc1cc(C)c(C2=NOC3(CCC(C)(C)CC3)C2)cc1NS(=O)(=O)C(F)(F)F [Compound 163]
[1]
  Barnyardgrass plant response rating: 90
[1]; 500 g ai/ha
  Plant response rating, Barnyardgrass: 100
Kochia (Bassia scoparia) [2]
  Kochia plant response rating: 0
Kochia (Bassia scoparia) [2]; 500 g ai/ha
  Plant response rating, Kochia: 80
[3]
  Ragweed plant response rating: 20
[3]; 500 g ai/ha
  Plant response rating, Ragweed: 60
[4]
  Ryegrass, Italian plant response rating: 80
[4]; 500 g ai/ha
  Plant response rating, Ryegrass, Italian: 100
[5]
  Foxtail, Giant plant response rating: 50
[5]; 500 g ai/ha
  Plant response rating, Foxtail, Giant: 90
[6]
  Pigweed plant response rating: 50
[6]; 500 g ai/ha
  Plant response rating, Pigweed: 100
[7]; 125 g ai/ha
  Plant response rating, Barnyardgrass: 0
[7]
  Barnyardgrass plant response rating: 80
Kochia (Bassia scoparia) [8]; [17]
  Plant response rating, Kochia: 10
Kochia (Bassia scoparia) [8]; [16]
  Kochia plant response rating: 60
[9]; [17]
  Plant response rating, Ragweed: 0
[9]; [16]
  Ragweed plant response rating: 30
[10]; [17]
  Plant response rating, Ryegrass, Italian: 0
[10]; [16]
  Ryegrass, Italian plant response rating: 30
[11]; [17]
  Plant response rating, Foxtail, Giant: 0
[11]; [16]
  Foxtail, Giant plant response rating: 10
[12]; [17]
  Plant response rating, Pigweed: 60
[12]; [16]
  Pigweed plant response rating: 80
[13]; [17]
  Plant response rating, Wheat: 0
[13]; [16]
  Wheat plant response rating: 0
Corn (Zea mays); [17]
  Plant response rating, Corn: 0
Corn (Zea mays); [16]
  Corn plant response rating: 60
[14]; 125 g ai/ha
  Plant response rating, Blackgrass: 20
[14]
  Blackgrass plant response rating: 30
[15]; [17]
  Plant response rating, Galium: 70
[15]; [16]
  Galium plant response rating: 90

## COC(=O)N(c1cc(C(=O)N2CCCC(OC)C2)c(C)cc1C)S(=O)(=O)C(F)(F)F (stereo not shown) [Compound 115]
[1]; [18]
  Plant response rating, Barnyardgrass: 50
[1]
  Barnyardgrass plant response rating: 100
Kochia (Bassia scoparia) [2]; [18]
  Plant response rating, Kochia: 0
Kochia (Bassia scoparia) [2]
  Kochia plant response rating: 40
[3]; [18]
  Plant response rating, Ragweed: 0
[3]
  Ragweed plant response rating: 20
[4]; [18]
  Plant response rating, Ryegrass, Italian: 70
[4]
  Ryegrass, Italian plant response rating: 90
[5]; [18]
  Plant response rating, Foxtail, Giant: 100
[5]
  Foxtail, Giant plant response rating: 100
[6]; [18]
  Plant response rating, Pigweed: 100
[6]
  Pigweed plant response rating: 90
[7]; 31 g ai/ha
  Plant response rating, Barnyardgrass: 10
[7]; [19]
  Plant response rating, Barnyardgrass: 50
Kochia (Bassia scoparia) [8]; [20]
  Plant response rating, Kochia: 20
Kochia (Bassia scoparia) [8]; [21]
  Plant response rating, Kochia: 30
[9]; [20]
  Plant response rating, Ragweed: 30
[9]; [21]
  Plant response rating, Ragweed: 50
[10]; [20]
  Plant response rating, Ryegrass, Italian: 0
[10]; [21]
  Plant response rating, Ryegrass, Italian: 40
[11]; [20]
  Plant response rating, Foxtail, Giant: 0
[11]; [21]
  Plant response rating, Foxtail, Giant: 30
[12]; [20]
  Plant response rating, Pigweed: 30
[12]; [21]
  Plant response rating, Pigweed: 60
[13]; [20]
  Plant response rating, Wheat: 40
[13]; [21]
  Plant response rating, Wheat: 60
Corn (Zea mays); [20]
  Plant response rating, Corn: 0
Corn (Zea mays); [21]
  Plant response rating, Corn: 0
[14]; 31 g ai/ha
  Plant response rating, Blackgrass: 0
[14]; [19]
  Plant response rating, Blackgrass: 0
[15]; [20]
  Plant response rating, Galium: 80
[15]; [21]
  Plant response rating, Galium: 90

## CO[C@@H]1CCCN(C(=O)c2cc(N(S(=O)(=O)C(F)(F)F)S(=O)(=O)C(F)(F)F)c(C)cc2C)C1 [Compound 95]
[1]; [18]
  Plant response rating, Barnyardgrass: 10
[1]
  Barnyardgrass plant response rating: 80
Kochia (Bassia scoparia) [2]; [18]
  Plant response rating, Kochia: 0
Kochia (Bassia scoparia) [2]
  Kochia plant response rating: 10
[3]; [18]
  Plant response rating, Ragweed: 0
[3]
  Ragweed plant response rating: 60
[4]; [18]
  Plant response rating, Ryegrass, Italian: 20
[4]
  Ryegrass, Italian plant response rating: 90
[5]; [18]
  Plant response rating, Foxtail, Giant: 90
[5]
  Foxtail, Giant plant response rating: 100
[6]; [18]
  Plant response rating, Pigweed: 70
[6]
  Pigweed plant response rating: 90
[7]; 31 g ai/ha
  Plant response rating, Barnyardgrass: 0
[7]; [19]
  Plant response rating, Barnyardgrass: 30
Kochia (Bassia scoparia) [8]; [22]
  Plant response rating, Kochia: 10
Kochia (Bassia scoparia) [8]; [21]
  Plant response rating, Kochia: 30
[9]; [22]
  Plant response rating, Ragweed: 0
[9]; [21]
  Plant response rating, Ragweed: 0
[10]; [22]
  Plant response rating, Ryegrass, Italian: 0
[10]; [21]
  Plant response rating, Ryegrass, Italian: 0
[11]; [22]
  Plant response rating, Foxtail, Giant: 0
[11]; [21]
  Plant response rating, Foxtail, Giant: 0
[12]; [22]
  Plant response rating, Pigweed: 40
[12]; [21]
  Plant response rating, Pigweed: 80
[13]; [22]
  Plant response rating, Wheat: 0
[13]; [21]
  Plant response rating, Wheat: 10
Corn (Zea mays); [22]
  Plant response rating, Corn: 0
Corn (Zea mays); [21]
  Plant response rating, Corn: 20
[14]; 31 g ai/ha
  Plant response rating, Blackgrass: 0
[14]; [19]
  Plant response rating, Blackgrass: 0
[15]; [22]
  Plant response rating, Galium: 40
[15]; [21]
  Plant response rating, Galium: 80
